# Test results published in PubChem BioAssay (NCI).
#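 Method: 48-hour compound exposure of cells in 96-well plates, five concentrations, linear interpolation of endpoints. The concentration for 50% growth inhibition is given as GI50. TGI is the concentration that stops growth completely.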
# Assays:
# Experiment in all cases: DTP human tumour cell line panel, 48 h
# [1] = system: 786-0 renal
# [2] = system: A498 renal
# [3] = system: A549 NSCLC
# [4] = system: ACHN renal
# [5] = system: BT-549 breast
# [6] = system: CAKI-1 renal
# [7] = system: CCRF-CEM leukemia
# [8] = system: COLO 205 colon
# [9] = system: DU-145 prostate
# [10] = system: EKVX NSCLC
# [11] = system: HCC-2998 colon
# [12] = system: HCT-116 colon
# [13] = system: HCT-15 colon
# [14] = system: HL-60(TB) leukemia
# [15] = system: HOP-62 NSCLC
# [16] = system: HOP-92 NSCLC
# [17] = system: HS 578T breast
# [18] = system: HT29 colon
# [19] = system: IGROV1 ovarian
# [20] = system: K-562 leukemia
# [21] = system: KM12 colon
# [22] = system: LOX IMVI melanoma
# [23] = system: M14 melanoma
# [24] = system: MALME-3M melanoma
# [25] = system: MCF7 breast
# [26] = system: MDA-MB-231 breast
# [27] = system: MDA-MB-435
# [28] = system: MOLT-4 leukemia
# [29] = system: NCI-H226 lung
# [30] = system: NCI-H23 lung
# [31] = system: NCI-H460 lung
# [32] = system: NCI-H522 lung
# [33] = system: NCI/ADR-RES ovarian
# [34] = system: OVCAR-3 ovarian
# [35] = system: OVCAR-4 ovarian
# [36] = system: OVCAR-5 ovarian
# [37] = system: OVCAR-8 ovarian
# [38] = system: PC-3 prostate
# [39] = system: RPMI-8226 leukemia
# [40] = system: RXF 393 renal
# [41] = system: SF-268 CNS
# [42] = system: SF-295 CNS
# [43] = system: SF-539 CNS
# [44] = system: SK-MEL-2 melanoma
# [45] = system: SK-MEL-28 melanoma
# [46] = system: SK-MEL-5 melanoma
# [47] = system: SK-OV-3 ovarian
# [48] = system: SN12C renal
# [49] = system: SNB-19 CNS
# [50] = system: SNB-75 CNS
# [51] = system: SR leukemia
# [52] = system: SW-620 colon
# [53] = system: T-47D breast
# [54] = system: TK-10 renal
# [55] = system: U251 CNS
# [56] = system: UACC-257 melanoma
# [57] = system: UACC-62 melanoma
# [58] = system: UO-31 renal
structure (smiles),measurement,setting,value
O=C(Nc1ccc(Cl)cc1)Nc1ccc(Nc2nncc3ccccc23)cc1,GI50,[1],3.09 µM
same,TGI,[1],25.2 µM
same,GI50,[2],3.79 µM
same,TGI,[2],18.8 µM
same,GI50,[3],3.03 µM
same,TGI,[3],19.3 µM
same,GI50,[4],1.12 µM
same,TGI,[4],7.12 µM
same,GI50,[5],2.15 µM
same,TGI,[5],9.28 µM
same,GI50,[6],1.97 µM
same,TGI,[6],12.5 µM
same,GI50,[7],2.57 µM
same,TGI,[7],17 µM
same,GI50,[8],2.77 µM
same,TGI,[8],9.58 µM
same,GI50,[9],3.17 µM
same,TGI,[9],26.9 µM
same,GI50,[10],2.95 µM
same,TGI,[10],25.3 µM
same,GI50,[11],3.26 µM
same,TGI,[11],19.8 µM
same,GI50,[12],2.46 µM
same,TGI,[12],12 µM
same,GI50,[13],1.59 µM
same,TGI,[13],11.8 µM
same,GI50,[14],2.42 µM
same,TGI,[14],7 µM
same,GI50,[15],3 µM
same,TGI,[15],14.9 µM
same,GI50,[16],2.55 µM
same,TGI,[16],7.26 µM
same,GI50,[17],3.83 µM
same,TGI,[17],27.7 µM
same,GI50,[18],2.65 µM
same,TGI,[18],14.1 µM
same,GI50,[19],2.52 µM
same,TGI,[19],30.7 µM
same,GI50,[20],1.68 µM
same,TGI,[20],26.4 µM
same,GI50,[21],1.47 µM
same,TGI,[21],11.4 µM
same,GI50,[22],0.825 µM
same,TGI,[22],14.6 µM
same,GI50,[23],1.52 µM
same,TGI,[23],11.5 µM
same,GI50,[24],3.94 µM
same,TGI,[24],16.5 µM
same,GI50,[25],1.43 µM
same,TGI,[25],8.33 µM
same,GI50,[26],3.4 µM
same,TGI,[26],15.9 µM
same,GI50,[27],2.14 µM
same,TGI,[27],9.42 µM
same,GI50,[28],2.09 µM
same,TGI,[28],6.36 µM
same,GI50,[29],2.46 µM
same,TGI,[29],12.5 µM
same,GI50,[30],3.07 µM
same,TGI,[30],14.4 µM
same,GI50,[31],2.91 µM
same,TGI,[31],11.9 µM
same,GI50,[32],1.32 µM
same,TGI,[32],8.81 µM
same,GI50,[33],2.79 µM
same,TGI,[33],26.3 µM
same,GI50,[34],2.57 µM
same,TGI,[34],10.3 µM
same,GI50,[35],1.97 µM
same,TGI,[35],8.17 µM
same,GI50,[36],4.15 µM
same,TGI,[36],34.3 µM
same,GI50,[37],3.12 µM
same,TGI,[37],12.4 µM
same,GI50,[38],2.32 µM
same,TGI,[38],11 µM
same,GI50,[39],2.5 µM
same,TGI,[39],8.75 µM
same,GI50,[40],4.28 µM
same,TGI,[40],21.4 µM
same,GI50,[41],3.19 µM
same,TGI,[41],28.1 µM
same,GI50,[42],2.84 µM
same,TGI,[42],11 µM
same,GI50,[43],2.88 µM
same,TGI,[43],11.5 µM
same,GI50,[44],2.7 µM
same,TGI,[44],7.7 µM
same,GI50,[45],3.04 µM
same,TGI,[45],12.8 µM
same,GI50,[46],2.31 µM
same,TGI,[46],6.82 µM
same,GI50,[47],3.05 µM
same,TGI,[47],17.7 µM
same,GI50,[48],4.58 µM
same,TGI,[48],37.2 µM
same,GI50,[49],3.67 µM
same,TGI,[49],19 µM
same,GI50,[50],1.88 µM
same,TGI,[50],8.67 µM
same,GI50,[51],3.89 µM
same,TGI,[51],23.4 µM
same,GI50,[52],3.16 µM
same,TGI,[52],18.6 µM
same,GI50,[53],1.03 µM
same,TGI,[53],5.35 µM
same,GI50,[54],5.03 µM
same,TGI,[54],24.4 µM
same,GI50,[55],2.86 µM
same,TGI,[55],10.3 µM
same,GI50,[56],3.41 µM
same,TGI,[56],10.8 µM
same,GI50,[57],0.958 µM
same,TGI,[57],7.97 µM
same,GI50,[58],1.9 µM
same,TGI,[58],15.8 µM
